assay: Measurement of dicamba volatility (humidome): dicamba concentration in air by LC-MS; assay type: physicochemical; settings: di- and tri-carboxylic acids tested in dicamba compositions
Text: Humidomes obtained from Hummert International (Part Nos 14-3850-2 for humidomes and 11-3050-1 for 1020 flat tray) were modified by cutting a 2.2 cm diameter hole on one end approximately 5 cm from the top to allow for insertion of a glass air sampling tube (22 mm OD) containing a polyurethane foam (PUF) filter. The sampling tube was secured with a VITON o-ring on each side of the humidome wall. The air sampling tube external to the humidome was fitted with tubing that was connected to a vacuum manifold immediately prior to sampling. […] The flat tray bottom containing the dicamba formulation on soil was covered with the humidome lid and the lid was secured with clamps. The assembled humidomes were placed in a temperature and humidity controlled environment and connected to a vacuum manifold through the air sampling line. Air was drawn through the humidome and PUF at a rate of 2 liters per minute (LPM) for 24 hours at which point the air sampling was stopped. The humidomes were then removed from the controlled environment and the PUF filter was removed. The PUF filter was extracted with 20 mL of methanol and the solution was analyzed for dicamba concentration using LC-MS methods known in the art. […] Where glyphosate was added or was part of the formulation, glyphosate was present at a concentration of 2.4% a.e. or 2.0 lb/A a.e. Where 2,4-D was added or was part of the formulation, 2,4-D was present at 2.4% ae or 2.0 lb/A ae at 10 gallons per acre (GPA). The growth chambers were set at 35° C. and 40% relative humidity (RH). For each composition four separate humidome boxes were sprayed to have 4 replicate measurements for each formulation. Tables 3-1 to 3-12 below provide the mean concentration of dicamba in air for the tested formulations.

Effect of the acid on dicamba volatility, did not reduce dicamba volatility:
O=C(O)C(=O)O [oxalic acid]
O=C(O)CC(O)(CC(=O)O)C(=O)O [citric acid]
O=C(O)CCC(=O)O [succinic acid]
O=C(O)CC(O)C(=O)O (stereo not shown) [malic acid]

From patent US20220192192A1, “LOW VOLATILITY HERBICIDAL COMPOSITIONS” (Monsanto Technology LLC, priority 2012, published 2022)
